Experimental findings from PubChem BioAssay AID2765 (Broad Institute, 2010) are described below.

The test system of this test is MEF A1-2A-BIM cells, caspase 3/7 luminescence, 3 h. The test is described as follows: inducers of caspase signal in A1-dependent MEFs – cell-based, luminescence, retest, A1 inhibitor project, dose response (AID 2765).

pEC50: −log10 of the molar value. Activity calls are given as the source filed them.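 The calls were made as follows: active = half-maximal concentration for the rise in caspase light signal at or below ten times the top tested dose; inconclusive = flat fit between 30% and 70% activity, or unreliable curve fit; inactive = the rest.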

For `CC(C)(C)C#CC(CCc1ccccc1)OS(N)(=O)=O` (stereo unspecified), the EC50 was > 35 µM (inactive).
With `CCOC(=O)/C=c1\s/c(=C\c2ccc(C(=O)OC)cc2)c(=O)n1CC(=O)Nc1ccccc1`, the EC50 is > 35 µM (inactive).
Turning to `CN(c1ccccc1)c1ccc(/C=C/[N+](=O)[O-])cc1`, the pEC50 is 4.90.
Take `Cc1ccc(C(C(=O)NCc2ccco2)N(C(=O)Cc2cccs2)c2cccnc2)cc1` (stereo unspecified): the EC50 is > 35 µM (inactive).
On the same count and under the same terms, to `O=C(CN1C(=O)NC2(CCCCCC2)C1=O)Nc1cccc(F)c1` belongs > 35 µM (inactive); to `Clc1ccc(C(Cn2ccnc2)OCc2c(Cl)cccc2Cl)c(Cl)c1` (stereo unspecified), > 35 µM (inactive).
As to `COc1ccc(-c2cc3ccccc3oc2=O)cc1NC(=S)NC(=O)c1ccc2c(c1)OCCO2`, the pEC50 was 5.17.
For the molecule `O=C(CCCCl)NC(=S)Nc1ccc(CN2CCOCC2)cc1`, the EC50 is > 35 µM (inactive).
Turning to `COc1ccc(-c2nc(CN3CCN(C(=O)c4ccco4)CC3)c(C)o2)cc1OC`, the EC50 was > 35 µM (inactive).
Still for that read-out and setting: to `COc1ccc(NC(=O)CN2CCC(NC(=O)c3ccc(OC)cc3)CC2)cc1` belongs > 35 µM (inactive).
For the molecule `COc1cc(NC(=O)c2ccc(C)cc2C)ccc1NC(=O)c1cc2ccccc2o1`, the pEC50 was 4.57.
Turning to `COCc1cc(C)nc(SCC(=O)Nc2nc(C)cs2)c1C#N`, the EC50 is > 35 µM (inactive).
Still for that read-out and setting: under `Cc1ccc(-c2csc(N=C(N)N)n2)cc1` stands > 35 µM (inactive).
The same measure, in the same setting: to `O=C1NCCCC1C(=O)N/N=C/c1cccc([N+](=O)[O-])c1` (stereo unspecified) belongs > 35 µM (inactive); to `COc1ccc(C2CC(c3c(O)cc(C)oc3=O)=NCCS2)c(OC)c1` (stereo unspecified), > 35 µM (inactive).
The same measure, in the same setting: to `Brc1ccc(CN2CCN(Cc3c[nH]c4ccccc34)CC2)cc1` belongs > 35 µM (inactive); to `Cc1cc(C)cc(COn2ccnc2)c1`, > 35 µM (inactive).
On to `CC(C)[C@H](NC(=O)[C@@H]1Cc2ccccc2CN1C(=O)OC(C)(C)C)C(=O)NC1CCCC1`, for which the EC50 is > 35 µM (inactive).
Same read-out and setting: to `Cn1nc(-c2ccc(OCC(=O)NCC3CCCO3)cc2)c2ccccc2c1=O` (stereo unspecified) belongs > 35 µM (inactive); to `COc1oc(-c2ccccc2)nc1C(F)(F)F`, > 35 µM (inactive); to `Nc1ccccc1SC(C[N+](=O)[O-])c1ccccc1` (stereo unspecified), > 35 µM (inactive).
Same read-out and setting: to `NC(=NCCCCCCN=C(N)/N=C(\N)Nc1ccc(Cl)cc1)/N=C(\N)Nc1ccc(Cl)cc1` belongs > 35 µM (inactive).
As for `CCOc1ccccc1C(=O)N[C@H](C(=O)OCc1cc([N+](=O)[O-])cc2c1OCOC2)C(C)C`, the EC50 was > 35 µM (inactive).
Consider `C=CC[N+]1(CC=C)CCOCC1`, for which the EC50 was > 35 µM (inactive).
In the case of `CCCS(=O)(=O)C/C(N)=N/OC(=O)c1ccc(Cl)cc1`, the EC50 was > 35 µM (inactive).
Take `Cc1ccc(C(=O)/C=C/C(=O)c2ccc(C)cc2)cc1`: the pEC50 was 4.71.
Turning to `O=[N+]([O-])/C=C/c1cn(Cc2ccc(Cl)cc2)c2ccccc12`, the pEC50 was 4.67.
`CNC(=S)NC1(C)CCS(=O)(=O)C1` (stereo unspecified): the EC50 is > 35 µM (inactive).
For the molecule `CCCCc1ccc(-c2csc(/C(C#N)=C\c3ccc(C)o3)n2)cc1`, the EC50 was > 35 µM (inactive).
Same read-out and setting: to `Cc1c(C)c(C)c(C(=O)CCc2cccc(NC(=O)CCC(=O)O)c2)c(C)c1C` belongs > 35 µM (inactive); to `CCOC(=O)[C@H]1[C@H]2COc3ccc(OC)cc3[C@@H]2N2C(=O)CN(CC3CCCO3)C(=O)[C@@]12C` (stereo partly specified), > 35 µM (inactive).
As to `O=C(Cn1c(C(F)(F)F)nc2ccccc21)N=Nc1c(O)[nH]c2ccc(Br)cc12`, the pEC50 was 4.56.
Turning to `Cc1ccc(C(=O)Nc2nnc(C3=COCCO3)o2)cc1C`, the EC50 is > 35 µM (inactive).
For `CN(C)CC#CCCCCCCC#CCN(C)C`, the EC50 was > 35 µM (inactive).
As to `CC(C)(C)c1ccc2c(c1)OC(C(=O)N/N=C\c1ccc[nH]1)CO2` (stereo unspecified), the EC50 is > 35 µM (inactive).
`CN(CC(=O)Nc1ccccc1Cl)CC(=O)Nc1cccc2ccccc12`: the EC50 was > 35 µM (inactive).
As to `CCOc1ccc2nc(NCCNC(=O)Nc3cccc(C)c3)c(C#N)cc2c1`, the pEC50 was 4.45.
Take `O=S1(=O)CCOC[C@H](CC2CCCCC2)N1Cc1cccc(Cl)c1`: the EC50 is > 35 µM (inactive).
`O=C(Cn1[nH]c(=O)c2ccccc2c1=O)OCC(=O)N1CCc2ccccc2C1`: the EC50 was > 35 µM (inactive).
On the same count and under the same terms, to `N#Cc1cccnc1N1CCN(C(=O)c2cccc3c2C(=O)c2ccc(-c4ccc(Cl)c(C(F)(F)F)c4)cc2S3(=O)=O)CC1` belongs > 35 µM (inactive).
With `CCc1ccc(Nc2n[n+](-c3ccccc3)c(/C=C/c3ccccc3)s2)cc1`, the pEC50 is 4.96.
As to `COc1ccc(-c2nn(-c3ccccc3)cc2/C=C/C(=O)OCC(=O)Nc2ccccc2C#N)cc1`, the pEC50 is 4.67.
Consider `CCC(NC(=O)c1cccc(Cn2cc([N+](=O)[O-])cn2)c1)c1ccc(C(C)C)cc1` (stereo unspecified), for which the EC50 was > 35 µM (inactive).
On the same count and under the same terms, to `Cc1ccc(C#N)c(SCC(=O)Nc2nccs2)n1` belongs > 35 µM (inactive); to `COc1ccccc1CCC(=O)Nc1ccc(S(=O)(=O)Nc2nccs2)cc1`, > 35 µM (inactive).
Turning to `CCCOc1ccc(N2C(=O)C3ON(c4ccccc4)C(CCC)C3C2=O)cc1` (stereo unspecified), the EC50 was > 35 µM (inactive).
Same read-out and setting: to `NC(=O)CCSC(=S)N1CCOCC1` belongs > 35 µM (inactive); to `CCOC(=O)CN1C(=O)CC(c2ccc([N+](=O)[O-])cc2)C1=O` (stereo unspecified), > 35 µM (inactive).
Regarding `CN(CC(=O)O)S(=O)(=O)c1ccc2oc3ccccc3c2c1`, the EC50 was > 35 µM (inactive).
With `COc1ccc(S(=O)(=O)N2CC(O)CC2C(=O)OCc2nc3sc(C)c(C)c3c(=O)[nH]2)cc1` (stereo unspecified), the EC50 was > 35 µM (inactive).
Same read-out and setting: to `CCN(CC)c1ccc2c(c1)oc(=O)c1c(Cl)cc(=O)oc12` belongs > 35 µM (inactive); to `CCc1ccc2nc(N(CCCN(C)C)C(=O)c3ccc(S(=O)(=O)N4CCc5ccccc5C4)cc3)sc2c1`, > 35 µM (inactive); to `COc1ccc(C(=O)COC(=O)CNS(=O)(=O)c2ccc(C)cc2)cc1`, > 35 µM (inactive).
The same measure, in the same setting: to `O=C(CSc1ncccc1C(=O)O)NC1CCCCC1` belongs > 35 µM (inactive).
As to `COCCCn1cc(C(=O)c2cc(OC)ccc2OCC(=O)N2CCCCC2C)cc(C#N)c1=O` (stereo unspecified), the EC50 was > 35 µM (inactive).
As to `CC1=NNC(=O)/C1=C\c1cn(-c2ccccc2)nc1-c1ccccc1`, the pEC50 was 4.93.
`Cc1c(C(c2ccccc2O)c2c(C)n(C)n(-c3ccccc3)c2=O)c(=O)n(-c2ccccc2)n1C`: the EC50 is > 35 µM (inactive).
The same measure, in the same setting: to `CN(C)S(=O)(=O)c1cccc(C(=O)Nc2n[nH]c(C(F)(F)F)n2)c1` belongs > 35 µM (inactive); to `Cc1cc(Br)c2c(c1)C1(OCCO1)C(=O)N2`, > 35 µM (inactive); to `Cc1cccc(/C=C/C(=O)c2ccc([N+](=O)[O-])o2)c1`, > 35 µM (inactive).
Consider `NS(=O)(=O)c1ccc(N/N=C/c2cn(-c3ccccc3)nc2-c2ccccc2)c([N+](=O)[O-])c1`, for which the pEC50 is 4.57.
As for `Cc1occc1-c1nnc(-c2cc([N+](=O)[O-])cc([N+](=O)[O-])c2)o1`, the EC50 was > 35 µM (inactive).
For `COc1cc(CN2CCCC(C(=O)Nc3ccccc3Oc3cccnc3)C2)ccc1F` (stereo unspecified), the EC50 was > 35 µM (inactive).
As for `COc1ccc(C=C2C=C(C(C)(C)C)C(=O)C(C(C)(C)C)=C2)cc1OC`, the pEC50 is 5.24.
Consider `CCc1cccc(N(CC(=O)NCc2ccc(F)cc2)C(=O)c2csnn2)c1`, for which the EC50 was > 35 µM (inactive).
Consider `N#CC(C#N)=C1C=CC=CN1/C(=C\c1ccccc1Cl)C(=O)c1ccccc1`, for which the pEC50 is 5.13.
For `CCSc1ccc(-c2nn(-c3ccccc3)cc2/C=C(/C#N)C(=O)NC)cc1`, the EC50 is > 35 µM (inactive).
Same read-out and setting: under `O=C(O)CCC(=NNC(=O)c1cccc(S(=O)(=O)N2CCCCC2)c1)c1ccccc1` stands > 35 µM (inactive); under `CCOc1cccc(C2C(C(=O)c3ccc(C)o3)=C(O)C(=O)N2Cc2ccncc2)c1` (stereo unspecified), > 35 µM (inactive); under `Cc1ccc2[nH]c3c(c2c1)CCCC3NC(=O)CCl` (stereo unspecified), > 35 µM (inactive).
Still for that read-out and setting: under `C#CCOCCOCCOCCNc1nc(N2CCN(C(=O)[C@H](CCCCN)n3cc(CCCC)nn3)CC2)nc(N2CCN(C(=O)[C@H](CCCCN)n3cc(CCC(=O)O)nn3)CC2)n1` stands > 35 µM (inactive).
On to `Cc1cc(=O)n2nc(N3CCCC(C(=O)NCCc4ccc(Cl)cc4)C3)sc2n1` (stereo unspecified), for which the EC50 is > 35 µM (inactive).
As for `O=C1NC(=O)C(c2cn(-c3ccccc3)nc2-c2ccc(F)cc2)N1` (stereo unspecified), the EC50 is > 35 µM (inactive).
Take `COC(=O)CSc1nc(N)c2c3c(sc2n1)C(c1ccccc1)SC(c1ccccc1)C3` (stereo unspecified): the EC50 is > 35 µM (inactive).
Regarding `O=C1C2C3C=CC(CO)(O3)C2C(=O)N1c1ccc(-c2ccccc2)cc1` (stereo unspecified), the EC50 is > 35 µM (inactive).
With `O=C(NNC(=O)c1cc(C(F)(F)F)cc(C(F)(F)F)c1)c1ccc(Cl)cc1`, the EC50 was > 35 µM (inactive).
For `O=C(O)C(CCCCNS(=O)(=O)c1ccc(F)cc1)NS(=O)(=O)c1ccc(F)cc1` (stereo unspecified), the EC50 was > 35 µM (inactive).
Still for that read-out and setting: under `c1ccc(Cc2nn3c(Cn4nnc5ccccc54)nnc3s2)cc1` stands > 35 µM (inactive).
Turning to `NS(=O)(=O)c1ccc(NC(=O)CN2CCc3ccccc32)cc1`, the EC50 is > 35 µM (inactive).
As to `CCN(CC)CCCNC(=S)N1CCC(c2nc3ccccc3[nH]2)CC1`, the EC50 was > 35 µM (inactive).
As to `CC(C)(C)OC(=O)n1cc(CCO)c2ccccc21`, the EC50 was > 35 µM (inactive).
Turning to `OC(COc1ccc2ccccc2c1Br)Cn1ccnc1` (stereo unspecified), the EC50 is > 35 µM (inactive).
As to `COc1ccc(CC(=O)NCCN2CCOCC2)cc1`, the EC50 was > 35 µM (inactive).
Consider `CCc1ccc(C2C3=C(CC(C)(C)CC3=O)Nc3c2c(=O)[nH]c2nc(C)nn32)cc1` (stereo unspecified), for which the EC50 is > 35 µM (inactive).
As for `Nc1nc(F)nc2c1ncn2[C@@H]1O[C@H](CO)[C@@H](O)[C@H]1O`, the EC50 was > 35 µM (inactive).
Same read-out and setting: under `Cc1cc(N2C(=O)CCC2=O)n(-c2ccccc2)n1` stands > 35 µM (inactive).

In general, EC50 refers to the concentration that produces a half-maximal response. Broadly, the pEC50 is the EC50 on a negative log10 scale, so that one unit is a factor of ten.
